These results are taken from patent US9085540B2, “Pyrazinecarboxamide compound” (Astellas Pharma Inc., priority 2012, dated 2015).

Test [1] concerns Ba/F3 cells expressing EGFR T790M/L858R mutation kinase. Briefly: Inhibition of EGFR T790M/L858R mutation kinase-dependent cell proliferation (Cell Titer-Glo). The class given is cell-based. The conditions noted are these: Mus musculus, BaF3, 48 h, cultured 2 days. How it is done: (§1) In a 96-well plate (Iwaki), Ba/F3 cells were seeded at 500 cells per well in an RPMI1640 medium (Invitrogen) containing 10% fetal bovine serum, followed by the addition of the test compound (final concentrations ranging from 1 μM to 0.1 nM) and DMSO which was a solvent of the test compound as a negative control. In the presence of 5% CO2, the cells were cultured at 37° C. for 2 days. A cell counting reagent (Cell Titer-Glo; Promega) was added thereto, and the light emitting intensity was measured using a luminometer (Envison or ARVO; PerkinElmer Inc.). […] The inhibitory rate of the test compound was calculated and the concentration causing 50% inhibition (IC50 value) was determined by a logistic regression method.
For orientation: Cellular ATP, detected with luciferase, serves as a proxy for viable cell number.

Another test addresses EGFR [T790M/L858R] (Homo sapiens (Human), UniProt P00533, L858R/T790M). Briefly: Inhibitory activity on EGFR T790M/L858R mutation kinase (LabChip peptide substrate phosphorylation). It counts as biochemical. The conditions noted are these: EGFR [T790M/L858R] enzyme, 2 hours preincubation, ATP 1000 μM. How it is done:
The phosphorylation activity on the peptide substrate of EGFR was investigated using LabChip (trademark) Systems (Caliper Life Sciences, Inc.). […] (Carna Biosciences, Inc.) was used. […] Then, the substrate and the ATP solution were added thereto, followed by reaction for 1 hour. An ATP concentration of 1000 μM was used. A reaction liquid containing the enzyme protein but no test compound (in which the DMSO alone was added as a solvent at 0.4% in place of the test compound) was prepared, followed by reaction in the same manner with or without ATP addition. […] The concentration causing 50% inhibition (IC50) was calculated for the test compound by a logistic regression method.

The test system of test [2] is Ba/F3 cells expressing EGFR T790M/del19 mutation kinase. Briefly: Inhibition of EGFR T790M/del19 mutation kinase-dependent cell proliferation (Cell Titer-Glo). It counts as cell-based. To be noted: Mus musculus, BaF3, 48 h; Ba/F3 cells expressing EGFR T790M/del19, cultured 2 days. The protocol: as §1
The test system of test [3] is H1975 cells (EGFR T790M mutation-expressing) subcutaneous tumor. Briefly: Anti-tumor test on EGFR T790M mutation-expressing H1975 cell cancer-bearing mice. The class given is in vivo. To be noted: Mus musculus, NCI-H1975, 336 h; H1975 cancer-bearing nude mice, oral 10 mg/kg once a day for 14 days; read-out: inhibitory rate (tumor volume). How it is done: 3×10^6 Cells of H1975 suspended in PBS were inoculated subcutaneously by injection to the back of 5-week old male […] nude mice (Charles River Laboratories Japan, Inc.). After 10 days of the inoculation, the administration of the test compound was initiated. The test was carried out in the solvent group and the test compound groups, with 5 animals per group. The test compounds were each mixed in a solvent of 0.5% aqueous methyl cellulose solution or a mixed solvent of polyethyleneglycol:N-methylpyrrolidone=90:10, and administered orally at a dose of 10 mg/kg. Administrations were performed once a day for 14 days, and the body weight and the tumor diameter were measured roughly every other day. The tumor volume was calculated using the following formula. [Tumor volume (mm^3)]=[Tumor major axis (mm)]×[Tumor minor axis (mm)]^2×0.5

As usually defined, the IC50 is the point on the concentration scale where inhibition reaches its midpoint.

Chain of EGFR [T790M/L858R] (P00533 25-1210 T790M/L858R): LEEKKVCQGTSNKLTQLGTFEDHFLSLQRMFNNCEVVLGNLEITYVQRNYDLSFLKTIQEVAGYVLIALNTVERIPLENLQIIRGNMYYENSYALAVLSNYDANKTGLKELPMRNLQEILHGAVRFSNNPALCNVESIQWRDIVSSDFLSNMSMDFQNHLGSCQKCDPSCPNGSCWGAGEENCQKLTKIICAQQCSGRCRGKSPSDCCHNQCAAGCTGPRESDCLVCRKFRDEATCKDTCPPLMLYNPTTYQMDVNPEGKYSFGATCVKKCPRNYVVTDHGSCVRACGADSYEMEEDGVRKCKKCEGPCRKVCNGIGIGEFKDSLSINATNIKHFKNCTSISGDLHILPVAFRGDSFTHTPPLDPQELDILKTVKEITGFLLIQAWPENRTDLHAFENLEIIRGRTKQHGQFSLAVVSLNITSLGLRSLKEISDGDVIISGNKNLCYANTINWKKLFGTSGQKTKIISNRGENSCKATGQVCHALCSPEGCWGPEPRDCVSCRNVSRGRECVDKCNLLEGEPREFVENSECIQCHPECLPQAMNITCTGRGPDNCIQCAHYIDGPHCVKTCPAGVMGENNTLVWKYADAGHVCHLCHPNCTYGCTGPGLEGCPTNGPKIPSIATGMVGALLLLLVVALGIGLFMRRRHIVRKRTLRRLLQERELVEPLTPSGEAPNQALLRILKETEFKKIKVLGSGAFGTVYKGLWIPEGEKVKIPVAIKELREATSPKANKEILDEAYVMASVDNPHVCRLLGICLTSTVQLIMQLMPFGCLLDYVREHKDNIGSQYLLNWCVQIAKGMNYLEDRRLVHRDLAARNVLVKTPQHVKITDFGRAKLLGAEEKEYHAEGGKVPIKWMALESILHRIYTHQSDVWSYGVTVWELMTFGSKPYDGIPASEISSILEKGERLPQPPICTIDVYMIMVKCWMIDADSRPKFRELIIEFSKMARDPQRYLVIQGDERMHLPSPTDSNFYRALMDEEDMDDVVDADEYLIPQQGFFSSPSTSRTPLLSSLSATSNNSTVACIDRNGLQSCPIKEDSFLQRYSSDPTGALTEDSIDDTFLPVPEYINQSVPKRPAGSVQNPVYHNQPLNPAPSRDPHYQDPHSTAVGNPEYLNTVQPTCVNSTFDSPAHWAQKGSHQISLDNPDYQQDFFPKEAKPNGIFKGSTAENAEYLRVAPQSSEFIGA

On to `C=CC(=O)Nc1cccc(Oc2nc(Nc3ccc(OC)c(N4CCN(C)CC4)c3)c(C(N)=O)nc2CC)c1` [Example 42], for which the IC50 in test [1] came out at 1.4 nM; on EGFR [T790M/L858R], 1.2 nM; in test [2], 1.3 nM.

For the compound `C=CC(=O)Nc1cccc(Oc2nc(Nc3ccc(N4CCN(CC)CC4)cc3)c(C(N)=O)nc2CC)c1` [Example 43], in test [2], the IC50 was 0.51 nM.

As for `C=CC(=O)Nc1cccc(Oc2nc(Nc3ccc(N4CCN(C)[C@H](C)C4)cc3)c(C(N)=O)nc2CC)c1` [Example 64], the inhibition in vivo at 10 mg/kg in test [3] was 28%. Besides, it took 0.42 nM to reach half-maximal inhibition in test [2] (IC50).

In the case of `C=CC(=O)N1CC[C@@H](Oc2nc(Nc3ccc(N4CCC(N5CCN(C)CC5)CC4)cc3)c(C(N)=O)nc2CC)C1` [Example 54], the inhibition in vivo at 10 mg/kg in test [3] amounted to 74%. Further, the IC50 in test [1] was determined as 4.5 nM; on EGFR [T790M/L858R], 1.7 nM; in test [2], 3.2 nM.

Turning to `C=CC(=O)Nc1cccc(Oc2nc(Nc3ccc(N4CCN(C)CC4)cc3)c(C(N)=O)nc2CC)c1C` [Example 15], in test [3], the inhibition in vivo at 10 mg/kg was found to be 41%. In addition, the IC50 turned out to be 1.1 nM in test [1], 1.2 nM on EGFR [T790M/L858R] and 0.77 nM in test [2].

For `C=CC(=O)Nc1cccc(Oc2cnc(C(N)=O)c(Nc3ccc(N4CCN(C)CC4)cc3)n2)c1` [Example 26], the IC50 in test [1] turned out to be 0.92 nM; on EGFR [T790M/L858R], 1.1 nM; in test [2], 0.52 nM.

On to `C=CC(=O)Nc1cccc(Oc2nc(Nc3ccc(N4CCN(C)[C@@H](C)C4)cc3)c(C(N)=O)nc2CC)c1` [Example 63], for which it took 0.66 nM to reach half-maximal inhibition in test [2] (IC50).

Turning to `C=CC(=O)N1CCC[C@@H](Oc2nc(Nc3ccc(N4CCC(N5CCN(C)CC5)CC4)c(C)c3)c(C(N)=O)nc2CC)C1` [Example 80], the inhibition in vivo at 10 mg/kg in test [3] stood at 27%. Moreover, the IC50 against EGFR [T790M/L858R] was found to be 1.2 nM.

Consider `C=CC(=O)N1CCC[C@@H](Oc2nc(Nc3ccc(N4CCC(N5CCN(C)CC5)CC4)cc3)c(C(N)=O)nc2CC)C1` [Example 79], for which, in test [3], the inhibition in vivo at 10 mg/kg is 30%. The compound further came in with an IC50 on EGFR [T790M/L858R] of 1.3 nM.

`C=CC(=O)N1CCC(c2nc(Nc3ccc(N4CCC(N5CCN(C)CC5)CC4)c(C)c3)c(C(N)=O)nc2CC)CC1` [Example 24]: the inhibition in vivo at 10 mg/kg in test [3] turned out to be 100%. This compound registered an IC50 in test [2] of 0.48 nM.

For `C=CC(=O)Nc1cccc(Oc2nc(Nc3cnn(C4CCN(C)CC4)c3)c(C(N)=O)nc2C(C)C)c1` [Example 56], the IC50 in test [1] was determined as 2 nM; against EGFR [T790M/L858R], 1.3 nM; in test [2] it was 1.6 nM.

On to `C=CC(=O)Nc1ccc(F)c(Oc2nc(Nc3ccc(N4CCN(C)CC4)cc3)c(C(N)=O)nc2CC)c1` [Example 82], for which the inhibition in vivo at 10 mg/kg in test [3] worked out at 84%. The compound also displayed an IC50 against EGFR [T790M/L858R] of 1.5 nM.

Consider `C=CC(=O)Nc1cccc(Oc2nc(Nc3ccc(N4CCN(C)CC4)cc3)c(C(N)=O)nc2CC)c1` [Example 1, 5-[3-(acryloylamino)phenoxy]-6-ethyl-3-{[4-(4-methylpiperazin-1-yl)phenyl]amino}pyrazine-2-carboxamide], for which, in test [3], the inhibition in vivo at 10 mg/kg turned out to be 24%. In addition, the values for the concentration for half-maximal inhibition (IC50) (in test [1]; against EGFR [T790M/L858R]; in test [2]) were 2.2 nM, 1.3 nM and 1.4 nM, respectively.

As to `CCc1nc(C(N)=O)c(Nc2ccc(N3CCN(C)CC3)cc2)nc1Oc1cccc(NC(=O)/C=C/CN(C)C)c1` [Example 3, 5-(3-{[(2E)-4-(dimethylamino)buta-2-enoyl]amino}phenoxy)-6-ethyl-3-{[4-(4-methylpiperazin-1-yl)phenyl]amino}pyrazine-2-carboxamide], the IC50 in test [1] was 17 nM; on EGFR [T790M/L858R], 1.4 nM; in test [2], 8.8 nM.
